Measured values reported in patent publication US11608342B2, “PDE9 inhibitors with imidazo triazinone backbone and imidazo pyrazinone backbone for treatment of peripheral diseases” (H. LUNDBECK A/S, priority 2015, dated 2023).

Tests used:
[1] = Blood Brain Barrier penetration (brain-to-plasma distribution); format: in vivo, Male CD mice; settings: mouse, 10 mg/kg subcutaneous
Description: Male CD mice (20-24 g) were housed pair-wise with free access to food and water for an acclimatization period of 3-7 days before initiation of experiments. Prior to dosing the animals were fasted overnight. During testing, mice were kept in individual cages. The brain-to-plasma distribution was assessed 30 minutes and 2 hours after subcutaneous administration of the test compound at a dose of 10 mg/kg (n=3 at each time point). The dose volume was 10 ml/kg using appropriate vehicle to solubilize each test compound. At the time of sampling, animals were anesthetized with isoflurane and a systemic blood sample collected by cardiac puncture into vacutainers containing sodium heparin as anti-coagulant. The blood was centrifuged at 3500 rpm for 10 minutes at 4° C. to obtain plasma. Following decapitation, brains were dissected out and transferred to pre-weighed vessels followed by tissue weights determination. Plasma and brains were stored at −80° C. until quantitative bioanalysis by LC-MS/MS. Results are expressed as ng/ml for plasma and ng/g for brain samples.

PDE9 = PDE9 (Homo sapiens (Human), UniProt O76083); test: PDE9 inhibition assay; format: biochemical; settings: 3H-cAMP substrate, SPA
Sequence of PDE9 (O76083 whole entry): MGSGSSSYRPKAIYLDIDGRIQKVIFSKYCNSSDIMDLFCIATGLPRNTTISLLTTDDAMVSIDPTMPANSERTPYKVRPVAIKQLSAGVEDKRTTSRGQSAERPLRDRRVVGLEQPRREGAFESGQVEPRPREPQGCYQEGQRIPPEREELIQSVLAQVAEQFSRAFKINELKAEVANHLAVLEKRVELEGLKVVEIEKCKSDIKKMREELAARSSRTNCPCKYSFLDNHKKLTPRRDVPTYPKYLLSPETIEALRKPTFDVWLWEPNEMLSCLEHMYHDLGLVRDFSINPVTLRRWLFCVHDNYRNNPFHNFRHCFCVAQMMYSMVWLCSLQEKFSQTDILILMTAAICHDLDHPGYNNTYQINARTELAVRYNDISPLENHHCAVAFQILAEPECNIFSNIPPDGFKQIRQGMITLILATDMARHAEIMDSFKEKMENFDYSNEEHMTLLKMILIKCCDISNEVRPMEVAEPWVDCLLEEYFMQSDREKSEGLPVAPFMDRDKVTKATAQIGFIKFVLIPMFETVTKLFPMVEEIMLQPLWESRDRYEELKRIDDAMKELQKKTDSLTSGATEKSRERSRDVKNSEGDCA
Description: Reactions are initiated by addition of the cyclic nucleotide substrate, and reactions are allowed to proceed for one hr at room temperature before being terminated through mixing with 15 uL 8 mg/mL yttrium silicate SPA beads (Amersham). […] Following a 1 hour incubation the reactions were terminated by addition of 15 uL 8 mg/mL yttrium silicate SPA beads (Amersham). […] IC50 values were calculated by nonlinear regression using XLfit (IDBS).

| Brain concentration after 30 minutes ([1]; 30 min) | Brain concentration after 120 minutes [1] | IC50 (PDE9) [µM] | Structure (SMILES) |
| --- | --- | --- | --- |
| Below detection | Below detection |  | O=c1[nH]c(CN2CC(Oc3cccnc3)C2)cn2c(C3CCOCC3)ncc12 [Compound (P2), 6-[3-(pyridin-3-yloxy)-azetidin-1-ylmethyl]-3-(tetrahydropyran-4-yl)-7H-imidazo[1,5-a]pyrazin-8-one] |
|  | 120 mm.: 7 ng/mL | 0.049 | C[C@@H]1CN(Cc2ncccn2)C[C@H]1c1cn2c(C3CCOCC3)ncc2c(=O)[nH]1 (single isomer, unassigned) [Compound (P3, enantiomer 1)] |
